Laboratory results as given in the supplement of paper PMC10307832.

Tests used:
Assay in all cases: relative viability (nuclei count vs DMSO), 5 days (fraction); higher = more cells survive
Sunitinib + Vorinostat = compound: CCN(CC)CCNC(=O)c1c(C)[nH]c(/C=C2\C(=O)Nc3ccc(F)cc32)c1C [Sunitinib] + O=C(CCCCCCC(=O)Nc1ccccc1)NO [Vorinostat] (partner 1 µM)
Method in brief: (§1)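 The day after seeding in 1536-well plates, lung cancer cell lines were treated by pin tool with a single drug, or with a fixed anchor-drug dose together with five library-drug doses (not always all listed) in √10 steps. After 5 days, a combined fix-and-stain solution (final 0.05% Triton X-100, 1% formaldehyde, 1 ug/ml Hoechst) was added. Nuclei counted on 4× images gave relative viability as treated counts over vehicle counts, reported as the median of duplicate plates.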

Sunitinib + Pemetrexed = compound: CCN(CC)CCNC(=O)c1c(C)[nH]c(/C=C2\C(=O)Nc3ccc(F)cc32)c1C [Sunitinib] + Nc1nc2[nH]cc(CCc3ccc(C(=O)N[C@@H](CCC(=O)O)C(=O)O)cc3)c2c(=O)[nH]1 [Pemetrexed] (partner 0.2 µM)
Method in brief: as §1

Sunitinib + Dasatinib = compound: CCN(CC)CCNC(=O)c1c(C)[nH]c(/C=C2\C(=O)Nc3ccc(F)cc32)c1C [Sunitinib] + Cc1nc(Nc2ncc(C(=O)Nc3c(C)cccc3Cl)s2)cc(N2CCN(CCO)CC2)n1 [Dasatinib] (partner 0.075 µM)
Method in brief: as §1

Sunitinib + Palbociclib = compound: CCN(CC)CCNC(=O)c1c(C)[nH]c(/C=C2\C(=O)Nc3ccc(F)cc32)c1C [Sunitinib] + CC(=O)c1c(C)c2cnc(Nc3ccc(N4CCNCC4)cn3)nc2n(C2CCCC2)c1=O [Palbociclib] (partner 0.5 µM)
Method in brief: as §1

Cell Line	relative viability (Sunitinib + Vorinostat; first compound 0.02 µM)	relative viability (Sunitinib + Vorinostat; first compound 0.06325 µM)	relative viability (Sunitinib + Vorinostat; first compound 0.2 µM)	relative viability (Sunitinib + Vorinostat; first compound 0.6325 µM)	relative viability (Sunitinib + Vorinostat; first compound 2 µM)	relative viability (Sunitinib + Pemetrexed; first compound 0.02 µM)	relative viability (Sunitinib + Pemetrexed; first compound 0.06325 µM)	relative viability (Sunitinib + Pemetrexed; first compound 0.2 µM)	relative viability (Sunitinib + Pemetrexed; first compound 0.6325 µM)	relative viability (Sunitinib + Pemetrexed; first compound 2 µM)	relative viability (Sunitinib + Dasatinib; first compound 0.02 µM)	relative viability (Sunitinib + Dasatinib; first compound 0.06325 µM)	relative viability (Sunitinib + Dasatinib; first compound 0.2 µM)	relative viability (Sunitinib + Dasatinib; first compound 0.6325 µM)	relative viability (Sunitinib + Dasatinib; first compound 2 µM)	relative viability (Sunitinib + Palbociclib; first compound 0.02 µM)	relative viability (Sunitinib + Palbociclib; first compound 0.06325 µM)	relative viability (Sunitinib + Palbociclib; first compound 0.2 µM)	relative viability (Sunitinib + Palbociclib; first compound 0.6325 µM)	relative viability (Sunitinib + Palbociclib; first compound 2 µM)
NCI-H2087	0.748	0.664	0.667	0.715	0.712	0.711	0.693	0.559	0.626	0.693	0.717	1.25	1	0.945	0.669	0.27	0.266	0.25	0.28	0.255
NCI-H2126	0.73	0.906	0.857	0.808	0.84	0.628	0.826	0.777	0.786	0.751	0.601	0.67	0.636	0.719	0.638	0.341	0.36	0.37	0.338	0.359
NCI-H2170	0.78	0.826	0.927	0.842	0.709	0.259	0.274	0.432	0.291	0.275	0.505	0.653	0.656	0.548	0.544	0.392	0.376	0.422	0.379	0.421
NCI-H2228	0.412	0.705	0.626	1.03	0.764	0.343	0.313	0.37	0.349	0.349	0.526	0.607	0.613	0.494	0.408	0.829	0.942	1.15	1.16	0.693
NCI-H2342	0.622	0.918	0.794	0.724	0.889	0.731	0.821	0.808	0.739	0.843	0.327	0.288	0.301	0.338	0.336	0.446	0.541	0.566	0.549	0.579
NCI-H2347	0.648	0.653	0.723	0.554	0.757	0.415	0.446	0.419	0.44	0.458	0.255	0.292	0.302	0.257	0.394	0.454	0.43	0.453	0.422	0.472
NCI-H2405	1.09	0.991	1.12	1.08	1.04	1.07	1.1	1.21	1.13	1.13	0.214	0.206	0.224	0.23	0.212	0.495	0.581	0.546	0.494	0.587
NCI-H3122	0.958	1.02	1.03	1.05	1.02	0.201	0.215	0.202	0.185	0.205	0.725	0.985	0.84	0.932	0.853	0.159	0.189	0.213	0.176	0.207
